# Where “and” joins values, the source holds several entries; their conditions need not be identical. Equal values may be shown once. Read-outs that look alike come from different tables or passages of the source.
# Assays:
# [1] = biological target: T1, DC-SIGN CRD (Homo sapiens, UniProt Q9NNX6); assay: direct nMS affinity measurement; type: binding; set-up: The carbohydrate recognition domain (CRD) of DC-SIGN (residues 250–404, MW 17 794 Da); made in house; conditions: pH 7.4
# T1 sequence (Q9NNX6 250-404): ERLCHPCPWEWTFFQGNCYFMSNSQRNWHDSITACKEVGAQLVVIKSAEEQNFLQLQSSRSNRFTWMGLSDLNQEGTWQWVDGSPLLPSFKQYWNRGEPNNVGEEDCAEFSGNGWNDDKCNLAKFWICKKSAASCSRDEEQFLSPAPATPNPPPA
# [2] = biological target: T2, GAL-3C (Homo sapiens, UniProt P17931); assay: direct nMS (ESI-MS) affinity measurement at known concentrations; type: binding; set-up: human Galectin-3 (GAL-3C, residues 107–250, molecular weight (MW) 16 327 Da); key: NB: No binding detected; conditions: glycans present as a mixture (G2, G5-G13); pH 6.9
# [3] = biological target: T1, DC-SIGN CRD; assay: COIN-nMS affinity measurement; type: binding; set-up: The carbohydrate recognition domain (CRD) of DC-SIGN (residues 250–404, MW 17 794 Da); made in house
# [4] = biological target: T2, GAL-3C; assay: COIN-nMS affinity measurement; type: binding; set-up: human Galectin-3 (GAL-3C, residues 107–250, molecular weight (MW) 16 327 Da); key: NB: No binding detected; conditions: glycans present as a mixture (G2, G5-G13); average of eight measurements; pH 6.9
# [5] = biological target: T3, GNA (Galanthus nivalis, UniProt P30617); assay: COIN-CaR-nMS; type: binding; conditions: purified glycan; ammonium acetate 200 mM, pH 6.9
# T3 sequence (P30617 24-128 limits assumed): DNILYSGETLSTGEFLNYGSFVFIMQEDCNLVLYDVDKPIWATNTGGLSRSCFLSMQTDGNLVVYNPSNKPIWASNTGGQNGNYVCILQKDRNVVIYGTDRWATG
# [6] = biological target: T3, GNA; assay: direct nMS (ESI-MS) measurement; type: binding; conditions: read-out: Kd by direct nMS (column Kd (Literature))
# [7] = biological target: T4, GAL-7 homodimer (Homo sapiens, UniProt P47929); assay: direct nMS affinity measurement; type: binding; set-up: key: NB: No binding detected; conditions: glycans present as a mixture (G2, G5-G13); pH 6.9
# T4 construct: made in house
# [8] = biological target: T4, GAL-7 homodimer; assay: COIN-nMS affinity measurement; type: binding; set-up: key: NB: No binding detected; conditions: glycans present as a mixture (G2, G5-G13); average of eight measurements; pH 6.9
# [9] = biological target: Siglec-7; conditions: ITC; cited from earlier work
# [10] = biological target: T5, CD22-Fc (Homo sapiens, UniProt P20273); assay: COIN-CaR-nMS; type: binding; conditions: N-glycan natural libraries and G21; pH 6.9
# T5 construct: His6 (C); made in house; host or cells: wild-type CHO cells
# T5 sequence (P20273 20-332 limits assumed): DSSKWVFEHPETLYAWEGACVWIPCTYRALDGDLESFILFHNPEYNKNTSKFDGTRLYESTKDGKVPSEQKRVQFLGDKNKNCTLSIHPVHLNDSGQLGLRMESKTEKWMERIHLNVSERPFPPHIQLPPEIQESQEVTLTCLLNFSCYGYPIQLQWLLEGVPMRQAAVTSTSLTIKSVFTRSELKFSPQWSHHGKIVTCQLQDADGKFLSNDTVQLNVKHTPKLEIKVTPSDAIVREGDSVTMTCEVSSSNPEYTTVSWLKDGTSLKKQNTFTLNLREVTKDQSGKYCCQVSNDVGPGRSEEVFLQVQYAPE
# [11] = biological target: SNA (Sambucus nigra agglutinin) (Sambucus nigra, UniProt Q41358); assay: biochemical; type: binding
# [12] = biological target: Sig7-Fc (Homo sapiens, UniProt Q9Y286); assay: COIN-CaR-nMS; type: binding; set-up: Siglec 7-Fc (Sig7-Fc, residue 1–345, MW 150 kDa); His6 (C); made in house; host or cells: wild-type CHO cells
# [13] = biological target: SNA (Sambucus nigra, UniProt Q41358); assay: biochemical; type: binding; conditions: apparent Kd by ITC (Literature)
# [14] = biological target: MAA; assay: Isothermal titration calorimetry (ITC); type: binding, Maackia amurensis; conditions: ammonium acetate 200 mM, 25 °C, read-out: apparent Kd by ITC (Literature)
# [15] = test system: MAA (Maackia amurensis agglutinin); assay: COIN-CaR-nMS; type: binding
# [16] = biological target: SARS-CoV-2 RBD (Severe acute respiratory syndrome coronavirus 2, UniProt P0DTC2); assay: biochemical; type: binding; conditions: pH 6.9
# [17] = biological target: T6, AAL (Aleuria Aurantia lectin) (Aleuria aurantia, UniProt P18891); assay: COIN-CaR-nMS; type: binding; conditions: N-glycan natural libraries; pH 6.9
# T6 construct: purchased Vector Laboratories (Newark, CA, USA)
# T6 sequence (P18891 1-313): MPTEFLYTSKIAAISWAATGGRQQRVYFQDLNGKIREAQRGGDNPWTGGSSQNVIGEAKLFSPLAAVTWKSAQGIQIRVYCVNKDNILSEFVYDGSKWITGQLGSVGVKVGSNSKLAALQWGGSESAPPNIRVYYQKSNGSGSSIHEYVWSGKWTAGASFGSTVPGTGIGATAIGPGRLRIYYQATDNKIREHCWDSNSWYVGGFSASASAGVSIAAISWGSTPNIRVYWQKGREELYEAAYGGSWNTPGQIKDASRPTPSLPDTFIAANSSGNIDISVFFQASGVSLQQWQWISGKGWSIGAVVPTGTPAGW
# [18] = biological target: RCA-I (Ricinus communis agglutinin) (Ricinus communis, UniProt P06750); type: binding; conditions: pH 6.9; read-out: Kd (Native)
# [19] = test system: GFP-encoding SARS-CoV-2 pseudotyped virus, ACE2+ HEK293 cells; type: cell-based
# [20] = test system: SARS-CoV-2 (hCoV-19/Canada/ON-VIDO-01/2020), ACE2+ HEK293 cells; type: cell-based
# [21] = biological target: T2, GAL-3C; set-up: human Galectin-3 (GAL-3C, residues 107–250, molecular weight (MW) 16 327 Da); conditions: known Kd used to calculate glycan concentration; cited from earlier work
# [22] = N-glycan natural libraries and purified oligosaccharides, pH 6.9, read-out: Kd
# SNA (Sambucus nigra agglutinin), sequence (Q41358 309-570 limits assumed): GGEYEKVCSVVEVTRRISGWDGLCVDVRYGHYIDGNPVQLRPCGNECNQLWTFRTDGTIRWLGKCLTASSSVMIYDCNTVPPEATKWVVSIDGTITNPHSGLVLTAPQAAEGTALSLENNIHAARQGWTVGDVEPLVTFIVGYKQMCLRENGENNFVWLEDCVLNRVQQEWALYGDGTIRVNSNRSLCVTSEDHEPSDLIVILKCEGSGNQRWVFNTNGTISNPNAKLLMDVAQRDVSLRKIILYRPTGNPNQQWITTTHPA
# SNA (Sambucus nigra agglutinin), sequence (Q41358 29-289 partner limits assumed): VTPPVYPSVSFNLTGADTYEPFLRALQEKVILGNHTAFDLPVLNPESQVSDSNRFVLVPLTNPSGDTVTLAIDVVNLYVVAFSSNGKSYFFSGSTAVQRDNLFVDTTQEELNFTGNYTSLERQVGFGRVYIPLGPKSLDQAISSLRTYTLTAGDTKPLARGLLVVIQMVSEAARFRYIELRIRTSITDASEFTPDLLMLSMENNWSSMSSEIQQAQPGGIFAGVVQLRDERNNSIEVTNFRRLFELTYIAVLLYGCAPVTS
# T4 sequence (P47929 whole entry): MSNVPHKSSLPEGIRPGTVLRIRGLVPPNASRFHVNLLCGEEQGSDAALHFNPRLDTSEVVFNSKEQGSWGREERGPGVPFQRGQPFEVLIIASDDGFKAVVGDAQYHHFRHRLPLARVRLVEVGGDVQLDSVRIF
# Sig7-Fc, sequence (Q9Y286 19-345): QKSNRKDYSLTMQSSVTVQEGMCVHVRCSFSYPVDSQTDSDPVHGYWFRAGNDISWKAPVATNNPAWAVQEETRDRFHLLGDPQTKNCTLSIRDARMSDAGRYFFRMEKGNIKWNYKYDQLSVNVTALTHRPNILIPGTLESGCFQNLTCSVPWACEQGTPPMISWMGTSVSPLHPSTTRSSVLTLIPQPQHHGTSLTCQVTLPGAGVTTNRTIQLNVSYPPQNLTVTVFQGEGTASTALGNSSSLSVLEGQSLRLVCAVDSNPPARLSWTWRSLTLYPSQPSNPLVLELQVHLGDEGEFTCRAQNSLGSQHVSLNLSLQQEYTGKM
# T2 sequence (P17931 107-250): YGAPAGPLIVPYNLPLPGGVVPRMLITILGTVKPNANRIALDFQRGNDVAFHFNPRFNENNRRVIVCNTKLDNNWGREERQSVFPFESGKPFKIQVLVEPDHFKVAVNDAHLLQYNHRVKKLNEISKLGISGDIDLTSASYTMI
# SNA, sequence (Q41358 309-570 limits assumed): as the sequence (Q41358 309-570 limits assumed) above
# SNA, sequence (Q41358 29-289 partner limits assumed): as the sequence (Q41358 29-289 partner limits assumed) above
molecule,measurement,setting,value
"OC[C@H]1O[C@H](O[C@@H]2[C@@H](OC[C@H]3O[C@H](OC[C@H]4OC(O)[C@@H](O)[C@@H](O[C@H]5O[C@H](CO)[C@@H](O)[C@H](O)[C@@H]5O[C@H]5O[C@H](CO)[C@@H](O)[C@H](O)[C@@H]5O[C@H]5O[C@H](CO)[C@@H](O)[C@H](O)[C@@H]5O)[C@@H]4O)[C@@H](O)[C@@H](O[C@H]4O[C@H](CO)[C@@H](O)[C@H](O)[C@@H]4O[C@H]4O[C@H](CO)[C@@H](O)[C@H](O)[C@@H]4O)[C@@H]3O)O[C@H](CO)[C@@H](O)[C@@H]2O)[C@@H](O)[C@@H](O)[C@@H]1O (stereo partly drawn) [Glycan G5, α-D-Man-(1→2)-α-D-Man-(1→6)-[Man-(1→2)-α-D-Man-(1→3)]-α-D-Man-(1→6)-[Man-(1→2)-α-D-Man-(1→2)-α-D-Man-(1→3)]-α-D-Man]",Kd,"[1]; glycans present as a mixture (G2, G5, G10, G14-G20)",230 ± 20 µM
same,Kd,"[1]; individual glycan, ammonium acetate 200 mM, 2.5 mM calcium",231 ± 17.3 µM
same,Kd (nMS),[2],NB
same,Kd,"[3]; global fit of data sets at 75, 100, 125 µM glycan, read-out: Kd (COIN-nMS, global fit)",235 ± 12.6 µM
same,Kd,"[3]; glycan concentration 75 µM, pH 7.4, read-out: Kd (COIN-nMS, individual experiments)",212 ± 2.2 µM
same,Kd,"[3]; glycan concentration 100 µM, pH 7.4, read-out: Kd (COIN-nMS, individual experiments)",246.7 ± 1 µM
same,Kd,"[3]; glycan concentration 125 µM, pH 7.4, read-out: Kd (COIN-nMS, individual experiments)",234 ± 1.5 µM
same,Kd,"[3]; glycans present as a mixture (G2, G5, G10, G14-G20), average of six measurements, pH 7.4, read-out: Kd (COIN-nMS)",240 ± 40 µM
same,Kd (COIN-nMS),[4],NB and do not bind
same,Kd,[5],553.2 ± 1 µM
same,Kd,[6],774 µM
same,Kd (nMS),[7],NB
same,Kd (COIN-nMS),[8],NB and do not bind
"CC(=O)N[C@H]1[C@H]([C@H](O)[C@H](O)CO)O[C@@](OC[C@H]2O[C@@H](O[C@H]3[C@H](O)[C@@H](O)C(O)O[C@@H]3CO)[C@H](O)[C@@H](O)[C@H]2O)(C(=O)O)C[C@@H]1O (stereo partly drawn) [Glycan G21, α-D-Neu5Ac-(2→6)-β-D-Gal-(1→4)-D-Glc]",Kd,[9],240 µM
same,Kd,[10],40 µM
same,fold weaker ligand than G23,[11],3 fold
same,Kd,[11]; Kd (COIN-CaR-nMS),1.6 ± 0.4 µM
same,Kd,"[11]; Kd (COIN-CaR-nMS), two ligands",2 µM and 1.5 µM and 3.3 µM and 1.7 µM and 1.6 µM and 1.8 µM
same,Kd,"[12]; G21 0.5 μM and G29 30 μM, read-out: Kd (COIN-CaR-nMS), two ligands",284 ± 70 µM
same,Kd,"[12]; G21 1.0 μM and G29 30 μM, read-out: Kd (COIN-CaR-nMS), two ligands",239 ± 50 µM
same,Kd,"[12]; G21 5 μM and G29 30 μM, read-out: Kd (COIN-CaR-nMS), two ligands",366 ± 10 µM
same,Kd,"[12]; G21 10 μM and G29 30 μM, read-out: Kd (COIN-CaR-nMS), two ligands",249 ± 20 µM
same,Kd,[12]; [22],236 µM
same,Kd,[13],1.98 µM and 2 µM
"CC(=O)N[C@H]1[C@H]([C@H](O)[C@H](O)CO)O[C@@](O[C@H]2[C@@H](O)[C@@H](CO)O[C@@H](O[C@H]3[C@H](O)[C@@H](O)C(O)O[C@@H]3CO)[C@@H]2O)(C(=O)O)C[C@@H]1O (stereo partly drawn) [Glycan G22, α-D-Neu5Ac-(2→3)-β-D-Gal-(1→4)-D-Glc]",Kd,[9],680 µM
same,Kd,[14],4 ± 2 µM
"CC(=O)N[C@H]1[C@H]([C@H](O)[C@H](O)CO)O[C@@](OC[C@H]2O[C@@H](O[C@H]3[C@H](O)[C@@H](NC(C)=O)C(O)O[C@@H]3CO)[C@H](O)[C@@H](O)[C@H]2O)(C(=O)O)C[C@@H]1O (stereo partly drawn) [Glycan G23, α-D-Neu5Ac-(2→6)-β-D-Gal-(1→4)-D-GlcNAc]",Kd,[11]; Kd (COIN-CaR-nMS),0.6 µM
same,Kd,"[11]; Kd (COIN-CaR-nMS), two ligands",700 nM and 900 nM and 400 nM (2×) and 300 nM and 600 nM
same,Kd,"[11]; pH 6.9, read-out: Kd, Native library (-NeuS)",0.55 ± 0.16 µM
same,Kd,[12]; [22],265 ± 66 µM
same,fold weaker binding than G25,[15],2 fold
same,Kd,[16],76 ± 9 µM
CC(=O)N[C@H]1[C@H](O[C@H]2[C@H](O)[C@@H](NC(C)=O)C(O)O[C@@H]2CO[C@@H]2O[C@@H](C)[C@@H](O)[C@@H](O)[C@@H]2O)O[C@H](CO)[C@@H](O[C@@H]2O[C@H](CO[C@H]3O[C@H](CO)[C@@H](O)[C@H](O)[C@@H]3O[C@@H]3O[C@H](CO)[C@@H](O)[C@H](O)[C@H]3NC(C)=O)[C@@H](O)[C@H](O[C@H]3O[C@H](CO)[C@@H](O)[C@H](O)[C@@H]3O[C@@H]3O[C@H](CO)[C@@H](O)[C@H](O)[C@H]3NC(C)=O)[C@@H]2O)[C@@H]1O (stereo partly shown) [HexNAc4Hex3Fuc1],Kd,[17],2.6 ± 0.57 µM
same,Kd,[18],1.73 ± 0.08 µM
O=C1N[C@@H]2[C@@H](O)[C@@H](O)[C@H](O)[C@@H](CO)N2C1=O [kifunensine],infection by pseudotyped virus (%GFP+ cells),[19],decreased significantly
same,"infection by authentic virus (viral titers, PFU)",[20],concentration-dependent decrease in infection
α-D-GalNAc(1→3)-[α-L-Fuc(1→2)]-β-Gal(1→4)-D-GlcNAc [Glycan G24],Kd,[21],7.2 ± 0.4 µM

# — paper PMC10303200 (ACS Central Science, 2023)
